In US20240261297A1, “ANTI-CDK INHIBITORS FOR CANCER TREATMENT” (St. John's Cancer Institute, priority 2021, published 2024):
Where two headings read alike, the source gives them in different places.

Tests used:
[1] = In vivo safety (body weight, complete blood counts) in xenograft study; parameters: species or system mice
Procedure: Anti-tumor efficacy of I-3 was evaluated in a MDA-MB-231 breast cancer xenograft model. Briefly, mice with MDA-MB-231 tumors were randomized to three treatment groups: control (Vehicle, n=8), 1-3 IV (10 mg/kg, n=8) and 1-3 PO (10 mg/kg, n=8) on a schedule of 14 days for daily (PO) or twice weekly (IV). Oral gavage treatments were formulated in 0.1% Tween 80 and 99.9% of 0.5% (w/v) of methyl cellulose in water. Intravenous treatments were formulated in 5% (v/v) DMSO, 2.5% (v/v) absolute ethanol, 2.5% (v/v) Solutol, and 90% Normal saline. Tumor growth was measured twice weekly by using a digital vernier caliper and high resolution images of tumor bearing mice were captured using a digital camera at weekly intervals of the study (Days 0, 7 and 14). Tumor volume was calculated as follows: […]
At the end of the study, blood samples were collected from the animals for analysis of complete blood counts (CBC) using an automated hematology analyser (ADVIA2120, Siemens Ltd.). […] Once daily oral doses of 10 mg/Kg and twice weekly IV doses of 10 mg/kg were well-tolerated by the animals during the course of the treatment, with no changes in body weight or blood counts compared to vehicle control over the course of the study (Tables 14 and 15).

MDA-MB-231 = experiment: Cell viability in breast cancer cell lines; assay type: cell-based; conditions: Homo sapiens; MDA-MB-231 (Mesenchymal-like), 72 hours; read-out: CTG and Alamar Blue Assay IC50
Description: (§1) Tables 5 and 6 show assessment of in vitro efficacy of I-3 in a panel of breast cancer cell lines.

BT-549 = experiment: Cell viability in breast cancer cell lines; assay type: cell-based; conditions: Homo sapiens; BT-549 (Mesenchymal), 72 hours; read-out: CTG and Alamar Blue Assay IC50
Description: as §1

CDK4/cyclin D1 = CDK4/cyclin D1 (Homo sapiens, UniProt P11802); experiment: Radioisotope-based protein kinase assay; assay type: biochemical; conditions: 10 μM ATP, 3-fold dilution from 10 μM
Chain of CDK4/cyclin D1 (P11802 whole entry, canonical isoform): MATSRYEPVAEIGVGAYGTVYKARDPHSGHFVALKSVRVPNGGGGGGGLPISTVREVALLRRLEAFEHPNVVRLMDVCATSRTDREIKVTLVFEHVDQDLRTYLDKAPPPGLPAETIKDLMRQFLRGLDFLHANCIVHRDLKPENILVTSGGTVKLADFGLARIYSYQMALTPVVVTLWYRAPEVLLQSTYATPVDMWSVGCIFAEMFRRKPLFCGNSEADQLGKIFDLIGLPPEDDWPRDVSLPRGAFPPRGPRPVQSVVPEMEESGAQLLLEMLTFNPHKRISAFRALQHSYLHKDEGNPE
Chain of CDK4/cyclin D1 (P24385 whole entry partner, canonical isoform): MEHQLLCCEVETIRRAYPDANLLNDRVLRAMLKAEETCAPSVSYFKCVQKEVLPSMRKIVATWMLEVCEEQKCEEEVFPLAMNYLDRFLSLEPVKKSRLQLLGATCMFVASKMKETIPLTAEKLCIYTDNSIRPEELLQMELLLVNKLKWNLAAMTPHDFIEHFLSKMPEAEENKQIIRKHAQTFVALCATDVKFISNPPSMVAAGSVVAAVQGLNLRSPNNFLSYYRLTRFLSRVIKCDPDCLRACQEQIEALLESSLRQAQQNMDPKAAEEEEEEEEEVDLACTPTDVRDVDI
Procedure: (§2) A series of test compounds were selected for initial screening against CDK isoforms. Protein kinase assays were performed with gold standard radioisotope-based assay formats to measuring enzyme activity remaining in presence and absence of inhibitor.

CDK1/cyclin A = CDK1/cyclin A (Homo sapiens, UniProt P06493); experiment: Radioisotope-based protein kinase assay; assay type: biochemical; conditions: 10 μM ATP, 3-fold dilution from 10 μM
Procedure: as §2

CDK2/cyclin E [2] = target: T1, CDK2/cyclin E (Homo sapiens, UniProt P24941); experiment: Radioisotope-based protein kinase assay; assay type: biochemical; conditions: 10 μM ATP, 3-fold dilution from 10 μM
Procedure: as §2

CDK5/p25 = CDK5/p25 (Homo sapiens, UniProt Q00535); experiment: Radioisotope-based protein kinase assay; assay type: biochemical; conditions: Table 1; 10 μM ATP
Chain of CDK5/p25 (Q00535 whole entry): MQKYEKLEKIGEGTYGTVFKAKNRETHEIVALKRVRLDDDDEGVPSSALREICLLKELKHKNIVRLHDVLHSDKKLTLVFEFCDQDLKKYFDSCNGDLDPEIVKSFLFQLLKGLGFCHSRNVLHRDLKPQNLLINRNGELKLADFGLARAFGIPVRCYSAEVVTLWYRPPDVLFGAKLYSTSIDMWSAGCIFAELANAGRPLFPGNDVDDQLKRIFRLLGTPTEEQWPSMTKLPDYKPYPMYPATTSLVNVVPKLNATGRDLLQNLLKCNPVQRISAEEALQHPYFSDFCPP
Chain of CDK5/p25 (Q15078 99-307 partner limits assumed): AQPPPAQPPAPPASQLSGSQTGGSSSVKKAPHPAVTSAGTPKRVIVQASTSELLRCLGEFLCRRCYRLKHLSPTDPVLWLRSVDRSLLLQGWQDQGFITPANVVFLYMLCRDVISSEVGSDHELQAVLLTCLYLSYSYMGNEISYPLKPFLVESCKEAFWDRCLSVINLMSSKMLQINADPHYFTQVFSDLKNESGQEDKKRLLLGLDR
Procedure: as §2

CDK9/cyclin T1 = CDK9/cyclin T1 (Homo sapiens, UniProt P50750); experiment: Radioisotope-based protein kinase assay; assay type: biochemical; conditions: 10 μM ATP, 3-fold dilution from 10 μM
Chain of CDK9/cyclin T1 (P50750 whole entry): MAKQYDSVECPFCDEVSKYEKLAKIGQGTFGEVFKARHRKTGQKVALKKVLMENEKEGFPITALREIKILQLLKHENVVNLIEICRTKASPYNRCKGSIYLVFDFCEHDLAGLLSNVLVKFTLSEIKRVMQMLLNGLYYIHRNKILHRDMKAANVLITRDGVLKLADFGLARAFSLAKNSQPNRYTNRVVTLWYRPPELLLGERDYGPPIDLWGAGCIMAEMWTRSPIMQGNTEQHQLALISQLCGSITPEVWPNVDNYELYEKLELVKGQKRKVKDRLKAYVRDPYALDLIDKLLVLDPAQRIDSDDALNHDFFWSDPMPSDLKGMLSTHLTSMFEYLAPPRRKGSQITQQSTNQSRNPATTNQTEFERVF
Chain of CDK9/cyclin T1 (O60563 whole entry partner): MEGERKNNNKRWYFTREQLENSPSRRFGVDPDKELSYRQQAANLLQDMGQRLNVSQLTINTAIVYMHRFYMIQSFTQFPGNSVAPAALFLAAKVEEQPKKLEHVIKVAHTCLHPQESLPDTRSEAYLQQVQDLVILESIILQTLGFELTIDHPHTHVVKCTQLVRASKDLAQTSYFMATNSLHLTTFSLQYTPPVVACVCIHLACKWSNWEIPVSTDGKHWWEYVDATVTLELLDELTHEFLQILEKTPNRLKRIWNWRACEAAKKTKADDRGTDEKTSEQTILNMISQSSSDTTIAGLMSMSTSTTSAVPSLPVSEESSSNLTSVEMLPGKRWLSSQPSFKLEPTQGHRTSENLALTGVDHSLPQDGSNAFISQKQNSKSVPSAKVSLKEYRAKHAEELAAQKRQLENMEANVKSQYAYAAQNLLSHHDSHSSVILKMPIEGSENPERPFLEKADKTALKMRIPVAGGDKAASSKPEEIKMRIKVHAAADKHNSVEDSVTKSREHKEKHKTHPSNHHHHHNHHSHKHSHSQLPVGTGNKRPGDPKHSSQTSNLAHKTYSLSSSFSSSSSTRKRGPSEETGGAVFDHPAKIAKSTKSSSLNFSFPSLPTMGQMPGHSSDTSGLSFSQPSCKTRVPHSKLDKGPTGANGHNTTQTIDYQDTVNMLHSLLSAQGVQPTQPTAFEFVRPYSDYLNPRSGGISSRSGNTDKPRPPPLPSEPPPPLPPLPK
Procedure: as §2

CDK6/cyclin D1 = CDK6/cyclin D1 (Homo sapiens, UniProt Q00534); experiment: Radioisotope-based protein kinase assay; assay type: biochemical; conditions: 10 μM ATP, 3-fold dilution from 10 μM
Chain of CDK6/cyclin D1 (Q00534 whole entry): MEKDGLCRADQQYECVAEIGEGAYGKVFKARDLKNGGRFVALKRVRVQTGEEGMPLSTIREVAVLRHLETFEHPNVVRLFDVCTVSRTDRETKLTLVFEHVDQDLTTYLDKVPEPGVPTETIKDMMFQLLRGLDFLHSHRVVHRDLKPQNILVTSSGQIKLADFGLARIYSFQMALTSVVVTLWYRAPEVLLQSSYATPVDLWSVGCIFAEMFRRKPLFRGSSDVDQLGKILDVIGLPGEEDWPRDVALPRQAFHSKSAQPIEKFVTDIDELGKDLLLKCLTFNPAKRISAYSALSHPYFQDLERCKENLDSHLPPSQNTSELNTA
Chain of CDK6/cyclin D1 (P24385 whole entry partner): as the sequence (P24385 whole entry partner, canonical isoform) above
Procedure: as §2

CDK7/cyclin H = CDK7/cyclin H (Homo sapiens, UniProt P50613); experiment: Radioisotope-based protein kinase assay; assay type: biochemical; conditions: 10 μM ATP, 3-fold dilution from 10 μM
Chain of CDK7/cyclin H (P50613 whole entry): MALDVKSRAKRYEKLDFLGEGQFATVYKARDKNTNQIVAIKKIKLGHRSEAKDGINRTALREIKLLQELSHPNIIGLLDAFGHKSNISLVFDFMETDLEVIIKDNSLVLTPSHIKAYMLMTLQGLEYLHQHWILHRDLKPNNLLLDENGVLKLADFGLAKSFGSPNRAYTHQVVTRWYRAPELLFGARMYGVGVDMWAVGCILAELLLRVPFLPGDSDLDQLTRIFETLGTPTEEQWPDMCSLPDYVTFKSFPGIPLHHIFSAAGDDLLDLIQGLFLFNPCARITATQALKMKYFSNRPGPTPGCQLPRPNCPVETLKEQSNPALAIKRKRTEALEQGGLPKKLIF
Chain of CDK7/cyclin H (P51946 whole entry partner): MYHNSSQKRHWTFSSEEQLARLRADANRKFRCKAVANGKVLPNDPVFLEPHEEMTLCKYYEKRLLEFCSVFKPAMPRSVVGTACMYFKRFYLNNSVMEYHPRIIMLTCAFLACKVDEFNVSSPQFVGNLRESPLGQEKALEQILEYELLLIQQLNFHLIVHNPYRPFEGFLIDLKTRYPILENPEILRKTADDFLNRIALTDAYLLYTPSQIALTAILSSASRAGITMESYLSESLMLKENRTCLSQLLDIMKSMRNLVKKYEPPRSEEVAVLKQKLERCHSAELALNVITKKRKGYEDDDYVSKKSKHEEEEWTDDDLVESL
Chain of CDK7/cyclin H (P51948 whole entry partner): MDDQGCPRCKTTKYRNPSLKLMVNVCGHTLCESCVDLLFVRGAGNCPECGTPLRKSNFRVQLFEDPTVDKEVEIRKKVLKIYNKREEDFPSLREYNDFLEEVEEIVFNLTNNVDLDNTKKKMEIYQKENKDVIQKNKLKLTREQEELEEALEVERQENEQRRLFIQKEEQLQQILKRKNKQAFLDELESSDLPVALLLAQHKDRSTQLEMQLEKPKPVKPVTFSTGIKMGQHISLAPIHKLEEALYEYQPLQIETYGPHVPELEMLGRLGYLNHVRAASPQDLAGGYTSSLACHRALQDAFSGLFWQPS
Procedure: as §2

CDK2/cyclin A = CDK2/cyclin A (Homo sapiens, UniProt P24941); experiment: Radioisotope-based protein kinase assay; assay type: biochemical; conditions: 10 μM ATP, 3-fold dilution from 10 μM
Procedure: as §2

CDK1/cyclin B = CDK1/cyclin B (Homo sapiens, UniProt P06493); experiment: Radioisotope-based protein kinase assay; assay type: biochemical; conditions: 10 μM ATP, 3-fold dilution from 10 μM
Chain of CDK1/cyclin B (P06493 whole entry): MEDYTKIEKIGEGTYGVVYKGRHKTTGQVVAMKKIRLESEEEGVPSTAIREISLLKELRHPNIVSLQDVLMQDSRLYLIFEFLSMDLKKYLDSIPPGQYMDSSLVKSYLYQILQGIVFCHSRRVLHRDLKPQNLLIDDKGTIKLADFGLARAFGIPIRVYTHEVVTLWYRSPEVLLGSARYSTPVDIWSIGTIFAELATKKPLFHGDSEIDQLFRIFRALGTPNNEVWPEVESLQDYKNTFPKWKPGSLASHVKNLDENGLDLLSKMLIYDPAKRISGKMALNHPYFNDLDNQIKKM
Chain of CDK1/cyclin B (P14635 whole entry partner): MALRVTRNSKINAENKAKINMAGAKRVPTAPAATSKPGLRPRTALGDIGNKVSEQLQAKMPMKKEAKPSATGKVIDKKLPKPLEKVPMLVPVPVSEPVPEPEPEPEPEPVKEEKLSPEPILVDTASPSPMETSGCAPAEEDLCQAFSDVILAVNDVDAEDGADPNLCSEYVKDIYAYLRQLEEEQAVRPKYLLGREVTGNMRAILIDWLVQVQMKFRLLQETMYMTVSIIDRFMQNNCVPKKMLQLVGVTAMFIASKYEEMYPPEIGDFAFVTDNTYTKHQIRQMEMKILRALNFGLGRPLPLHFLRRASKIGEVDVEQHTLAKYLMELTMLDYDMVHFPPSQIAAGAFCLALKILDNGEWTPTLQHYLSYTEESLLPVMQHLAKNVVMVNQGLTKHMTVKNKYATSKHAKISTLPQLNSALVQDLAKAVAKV
Procedure: as §2

CDK2/cyclin E [3] = target: T1, CDK2/cyclin E; experiment: Cellular thermal shift assay (CETSA), isothermal dose response; assay type: binding; parameters: endogenous in cells; conditions: cell lysate, from 300 nM, 1 hour, 58° C. 20 min, Western blot
Procedure: Compound 1-3 efficacy was assessed in several in vitro assays. A nanoBrET assay was used to measure intracellular kinase activity of I-3 with CDK2, CDK1, CDK7 and CDK9. Briefly, HEK293 cells were transfected with CDK2, CDK1, CDK7 and CDK9. The transfected cells were treated in duplicate with test compound I-3 (starting at 10 μM, 10-dose with 3-fold dilution) and target engagement was measured by NanoBRET assay (FIG. 2A and Table 4). Cellular thermal shift assay (CETSA) was also performed to evaluate drug target interaction in the cells. The CETSA method is built upon two concepts: cellular thermal shift and isothermal dose-response. The cellular thermal shift assay is based on the established fact that proteins that are complexed to a ligand become more resistant to heat induced unfolding. Isothermal dose response is used to determine a compound's potency in binding the target by measuring the thermal stability of the target treated with various concentrations of compound at a fixed temperature. Briefly, cell lysate was treated with I-3 (starting at 300 nM, 10-dose with 3-fold dilution) and incubated for 1 hour and cell lysates were then subjected to predetermined thermal aggregation temperature (58° C.) for another 20 min. Western blot was performed to determine the levels of target protein bound to I-3 (FIG. 2B).

[4] = Absolute bioavailability / PK after IV and PO dosing in CD-1 male mice; assay type: in vivo; conditions: for Vd / AUC(0-t) / Tmax: male
Procedure: Absolute bioavailability of I-3 was assessed after IV and PO dosing in CD-1 male mice. Mean plasma concentration (FIG. 6) and PK parameters (Table 12) are shown. […] Plasma concentrations were observed up to 8 hours, and plasma concentrations were not observed at 24 hour time point. […] This is approximately 50% of the hepatic blood flow ([…]) in mice.

[5] = CD-1, mouse, plasma, male CD1 mice, PO 10 mg/kg

Nc1nccc(-c2c[nH]c3nccc(Oc4cccc(F)c4)c23)n1 [I-3, 4-(4-(3-fluorophenoxy)-1H-pyrrolo[2,3-b]pyridin-3-yl)pyrimidin-2-amine]
Body Weight, mean ± SE ([1]; IV 10 mg/kg, Day 0): 22.1 ± 0.6 g
Body Weight, mean ± SE ([1]; IV 10 mg/kg, Day 7): 22.3 ± 1.0 g
Body Weight, mean ± SE ([1]; IV 10 mg/kg, Day 14): 22.9 ± 0.7 g
Hematocrit (Mean ± SE) ([1]; IV 10 mg/kg, end of study): 38.4 ± 3.7%
Hemoglovin (Mean ± SE) ([1]; IV 10 mg/kg, end of study): 12.8 ± 0.8 g/dL
Mean corpuscular hemoglobin (Mean ± SE) ([1]; IV 10 mg/kg, end of study): 15.2 ± 0.2 pg
Mean corpuscular hemoglobin concentration (Mean ± SE) ([1]; IV 10 mg/kg, end of study): 30.3 ± 0.2 g/dL
Mean corpuscular volume (Mean ± SE) ([1]; IV 10 mg/kg, end of study): 50.2 ± 0.3 fL
Platelets (Mean ± SE) ([1]; IV 10 mg/kg, end of study): 802.4 ± 107.9 10^3 cells/μL
Red blood cells (Mean ± SE) ([1]; IV 10 mg/kg, end of study): 8.4 ± 0.5 10^6 cells/μL
White blood cells (Mean ± SE) ([1]; IV 10 mg/kg, end of study): 22.9 ± 8.3 10^3 cells/μL
Tolerability ([1]; PO 10 mg/Kg once daily and IV 10 mg/kg twice weekly, 14 days): well-tolerated
Body Weight, mean ± SE ([1]; PO 10 mg/kg, Day 0): 21.6 ± 0.4 g
Body Weight, mean ± SE ([1]; PO 10 mg/kg, Day 7): 20.9 ± 0.9 g
Body Weight, mean ± SE ([1]; PO 10 mg/kg, Day 14): 21.6 ± 0.9 g
Hematocrit (Mean ± SE) ([1]; PO 10 mg/kg, end of study): 34.2 ± 0.9%
Hemoglovin (Mean ± SE) ([1]; PO 10 mg/kg, end of study): 10.6 ± 0.3 g/dL
Mean corpuscular hemoglobin (Mean ± SE) ([1]; PO 10 mg/kg, end of study): 15.3 ± 0.1 pg
Mean corpuscular hemoglobin concentration (Mean ± SE) ([1]; PO 10 mg/kg, end of study): 31.1 ± 0.2 g/dL
Mean corpuscular volume (Mean ± SE) ([1]; PO 10 mg/kg, end of study): 44.8 ± 4.1 fL
Platelets (Mean ± SE) ([1]; PO 10 mg/kg, end of study): 762.1 ± 99.3 10^3 cells/μL
Red blood cells (Mean ± SE) ([1]; PO 10 mg/kg, end of study): 6.9 ± 0.2 10^6 cells/μL
White blood cells (Mean ± SE) ([1]; PO 10 mg/kg, end of study): 36.6 ± 6.8 10^3 cells/μL
Complete blood counts vs control group ([1]; end of study, IV and PO 10 mg/kg): no significant differences
IC50 (MDA-MB-231): 565 nM
IC50 (BT-549): 765 nM
IC50 (CDK4/cyclin D1): 414 nM
IC50 (CDK1/cyclin A): 6 nM
IC50 (CDK2/cyclin E [2]): 4 nM
IC50 (CDK5/p25): 8 nM
IC50 (CDK9/cyclin T1): 7 nM
IC50 (CDK6/cyclin D1): 285 nM
IC50 (CDK7/cyclin H): 18 nM
IC50 (CDK2/cyclin A): 4 nM
IC50 (CDK1/cyclin B): 8 nM
Binding of CDK2/Cyclin E in drug target engagement methods (CETSA, NanoBRET) (CDK2/cyclin E [3]): potent binding (nanomolar range)
half-life ([4]; CD-1, mouse, plasma, male CD1 mice, IV 1 mg/kg): 204 ± 42 min
clearance ([4]; CD-1, mouse, plasma, male CD1 mice, IV 1 mg/kg, read-out: CLp (converted)): 41.7 mL/min/kg
AUC(0-inf) [4, 5]: 6570 ± 542 ng·h/mL
Cmax [4, 5]: 2500 ± 55.5 ng/mL
Plasma clearance ([4]; CD-1 male mice, IV): 2.5 L/h/kg
Plasma clearance as share of hepatic blood flow (5.4 L/kg) in mice ([4]; CD-1 male mice, IV): approximately 50%
Volume of distribution compared to total body water content (0.7 L/kg) ([4]; CD-1 male mice, IV): 17 fold
Time up to which plasma concentrations were observed ([4]; CD-1 male mice, after IV administration, not observed at 24 hour): up to 8 hours
Bioavailability (% F) ([4]; male CD1 mice, PO 10 mg/kg vs IV 1 mg/kg): 147.5 ± 14.8 % F
Vd ([4]; CD-1, mouse, plasma, iv, 1 mg/kg, CD-1 male mice, IV, read-out: Volume of distribution): 12.5 L/kg
AUC(0-t) ([4]; CD-1, mouse, plasma, iv, 1 mg/kg, male CD1 mice, IV 1 mg/kg): 384 ± 98.9 ng·h/mL
Vd ([4]; CD-1, mouse, plasma, iv, 1 mg/kg, male CD1 mice, IV 1 mg/kg, read-out: Vdss): 6.8 ± 2.4 L/kg
AUC(0-t) ([4]; CD-1, mouse, plasma, po, 10 mg/kg, CD-1 male mice, PO 10 mg/kg): 5670 ng·h/mL
Tmax ([4]; CD-1, mouse, plasma, po, 10 mg/kg, CD-1 male mice, PO 10 mg/kg, read-out: Tmax (oral absorption)): 0.5 to 1 h
AUC(0-t) ([4]; CD-1, mouse, plasma, po, 10 mg/kg, male CD1 mice, PO 10 mg/kg): 5670 ± 569 ng·h/mL
Tmax ([4]; CD-1, mouse, plasma, po, 10 mg/kg, male CD1 mice, PO 10 mg/kg, read-out: Tmax): 1 ± 0.3 h
bioavailability ([4]; mouse, plasma, CD-1 male mice, PO 10 mg/kg, read-out: Oral suspension bioavailability (% F)): > 100%
